In US5063210A, “Use of sulfated polysaccharides to decrease cholesterol and fatty acid absorption” (priority 1989, dated 1991):

Key:
Assay type in all cases: biochemical
[1] = tested on: human pancreatic cholesterol esterase; experiment: Inhibition of human pancreatic cholesterol esterase, hydrolysis of cholesteryl 14C-oleate in phosphatidylcholine vesicles; settings: for IC50, inhibition of cholesterol esterase (cholesteryl oleate hydrolysis) / IC50: substrate cholesteryl 14C-oleate, 37° C., 15 min; for IC50: molar values from assumed molecular weights
[2] = target: human 100 kDa cholesterol esterase; experiment: Inhibition of triolein hydrolysis by the human 100 kDa cholesterol esterase; settings: substrate triolein instead of cholesteryl oleate
Experimental: Alginic acid from Macrocystis pyrifera (kelp) was dissolved in water at a concentration of 1 mg/ml. This stock solution was used to prepare various polysaccharide concentrations down to 10^-5 mg/ml. Human pancreatic cholesterol esterase was purified as described by Bosner et al., Proc. Nat'l. Acad. Sci., 85, 7438 (1988). To measure cholesterol esterase inhibition by alginic acid, 50 μl of cholesterol esterase (10 μg/ml), 75 μl of phosphatidylcholine vesicles containing cholesteryl ^14 C-oleate (1 mM 2,000 CPM/nmole), 25 μl of 100 mM taurocholate, 120 μl of 150 mM Tris, pH 7.5 and 30 μl of test alginic acid solution were incubated at 37° C. for fifteen minutes. The assay was quenched by placing the reaction vessels in a 4° C. ice bath and by adding 0.6 ml of 0.3 N NaOH and 3 ml of benzene/chloroform/methanol (1.0/1.2/0.5). The quenched reactions were vortexed for 30 seconds, centrifuged at 3,000 g for 15 minutes and 1 ml of the upper aqueous phase was added to 7 ml of Aquasol-2 (DuPont) with 0.025 ml of 6 N HCl. These mixtures were vortexed for one minute and counted for ^14 C-oleate. The counts were compared to a sample which contained cholesterol esterase but no alginic acid to determine the percentage of inhibition.
(The same assay procedure was used as described in Part I, only triolein was used instead of cholesteryl oleate.) As shown in the table below, the IC50 for inhibition of triolein hydrolysis is nearly the same as that for cholesteryl oleate hydrolysis.

cholesterol esterase = experiment: Baking stability: cholesterol esterase inhibition by water extract of a baked corn muffin containing the inhibitor; settings: baked fifteen minutes in a 400° oven
Experimental: The sulfated polysaccharides described here retain their inhibitory activity for prolonged periods at elevated temperatures. […] For example, 109 mg of cellulose sulfate were added to 198 gm (7 oz) of corn muffin mix (Gold Medal®) and the solid ingredients were thoroughly mixed together. After the addition of one egg and one-third cup milk, the muffin mix was stirred fifteen times. The mixture was poured into nine muffin tins and baked for fifteen minutes in a 400° oven. The next day one muffin was broken up, added to 100 ml of water and allowed to stand for fifteen minutes. The mixture was centrifuged and the clear supernatant was assayed for the presence of cholesterol esterase inhibition. The IC50 of this solution was achieved when this solution was diluted 10^3 -10^4 times.

Row | Enhancement Factor ([1]; IC50 of alginic acid relative to IC50 of the sulfated derivative) | IC50, inhibition of cholesterol esterase (cholesteryl oleate hydrolysis) [1] | IC50 [1] | IC50 [2] | Stability of inhibitory activity under baking conditions / elevated temperatures (cholesterol esterase) | Inhibition of cholesterol esterase (in words) [1] | Substance
1 | 1.0 | 4 µg/mL | 20 nM | 42 nM |  |  | Alginic acid
2 |  |  | 0.02 nM | 0.06 nM | stable under baking conditions |  | Cellulose Sulfate
3 |  |  | 0.06 nM | 0.14 nM |  |  | Chitin Sulfate
4 |  | 0.015 µg/mL | 0.03 nM | 0.16 nM |  |  | Chitosan Sulfate
5 |  |  | 30 nM |  |  |  | agar [native (unsulfated) agar]
6 |  |  |  |  |  | does not inhibit cholesterol esterase | pectin [native, unsulfated pectin]
